Data as given in US8124389B2, “Crystal structure of aldehyde dehydrogenase and methods of use thereof” (The Board of Trustees of the Leland Stanford Junior …, priority 2008, dated 2012).
Residue numbers refer to the chain shown, from its start.

How the values were obtained:
Format in all cases: biochemical
[1] = biological target: T1, wild-type ALDH2 (Homo sapiens, UniProt P05091); assay: Dehydrogenase activity kinetic assay (25 mM BES, pH 7.5); settings: for Hill Slope / Vmax^(app) of daidzin inhibition curve / Vmin^(app) of daidzin inhibition curve: 100 μM propionaldehyde, 0.5 mM NAD+; for Vm/Vo / Vmax^(app) / EC50: 25 mM BES, pH 7.5, 0.5 mM NAD+; for EC50: read-out: KAct^(app)
T1 construct: made in house; host or cells: E. coli
T1 sequence (P05091 18-517): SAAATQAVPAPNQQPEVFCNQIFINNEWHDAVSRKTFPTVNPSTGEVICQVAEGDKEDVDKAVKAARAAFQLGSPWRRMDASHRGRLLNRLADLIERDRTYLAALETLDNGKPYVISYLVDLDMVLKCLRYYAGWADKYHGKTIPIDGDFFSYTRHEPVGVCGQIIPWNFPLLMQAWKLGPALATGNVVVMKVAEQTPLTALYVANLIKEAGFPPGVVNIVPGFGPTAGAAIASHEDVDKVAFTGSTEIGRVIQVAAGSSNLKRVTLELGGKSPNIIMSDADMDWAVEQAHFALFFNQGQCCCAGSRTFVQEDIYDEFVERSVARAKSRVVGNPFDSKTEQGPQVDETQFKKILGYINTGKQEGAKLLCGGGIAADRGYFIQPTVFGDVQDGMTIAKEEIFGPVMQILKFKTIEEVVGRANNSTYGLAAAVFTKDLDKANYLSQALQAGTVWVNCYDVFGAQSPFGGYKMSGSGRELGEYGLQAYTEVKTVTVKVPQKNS
Description: (§1) (A) Wild-type ALDH2 at 0 μM or 10 μM Alda-1 and (B) ALDH2*2 at 0 μM or 50 μM Alda-1. NAD^+concentrations were 0.5 mM for wild-type ALDH2 and 10 mM for ALDH2*2. Lines show fits to 4-parameter logistic curve.
(§2) ALDH2 and ALDH2*2 were produced and purified using an E. coli expression system as previously described (Larson et al., 2005, J. Biol. Chem. 280, 30550-30556 and Larson et al., 2007, J. Biol. Chem., 282, 12940-12950). All enzyme assays were performed in 25 mM BES, pH 7.5 and included a final concentration of 2% (v/v) DMSO as a cosolvent in all cases whether or not Alda-1 was present. Enzyme concentrations in the dehydrogenase assays were between 0.03 and 0.06 μM for ALDH2 and between 0.3 and 0.5 μM for ALDH2*2. Esterase assays utilized 0.97 mM para-nitrophenylacetate (pNPA) as a standard substrate concentration and enzyme concentrations for 0.06 μM for ALDH2 and 0.7 μM for ALDH2*2. All kinetic data were analyzed with SigmaPlot (v10.0, StatSys). All activation data for the dehydrogenase and esterase reactions were fit to the expression v=Vo+{(Vmax[S])/(KAct+[S])}, where Vo is the initial velocity for the reaction in the absence of activator and KAct is the concentration of activator required for half-maximal activation. All single-vary experiments for Alda-1 activation utilized a minimum of 10 different concentrations across a range from 0-200 μM. […] All data represent the average of a minimum of three independent experiments with at least two different enzyme preparations.

[2] = biological target: T2, ALDH2*2 (Homo sapiens, UniProt P05091, E504K); assay: as above; settings: for Hill Slope / Vmax^(app) of daidzin inhibition curve / Vmin^(app) of daidzin inhibition curve: 100 μM propionaldehyde, 10 mM NAD+
T2 construct: made in house; host or cells: E. coli
T2 sequence (P05091 18-517 E504K): T1 sequence (P05091 18-517) with E487K
Description: as §1, §2

[3] = biological target: T3, homotetrameric wild type ALDH2*1/*1 (Homo sapiens, UniProt P05091); assay: Enzyme activation of recombinant ALDH2 proteins by Alda-1 (FIG. 2); settings: Alda-1 at 100 μM; 20 μg recombinant protein
T3 construct: made in house
T3 sequence (P05091 18-517): T1 sequence (P05091 18-517)
Description: (§3) FIG. 2 depicts enzyme activation of homotetrameric wild type ALDH2 (homo wild type), heterotetrameric ALDH2 (hetero wild type/mutant; comprising a mixture of wild-type and mutant monomers), and homotetrameric mutant ALDH2 by Alda-1(100 μM). Enzymatic activity of recombinant ALDH2 proteins (20 μg each) is presented in percentage using homotetrameric wild type enzyme as a 100% control (n=3, **p<0.01 vs. control).
(§4) Alda-1 is an ALDH2 agonist. […] Chen et al. (2008) Science 321:1493-1495; PMID: 18787169.

[4] = biological target: T4, heterotetrameric ALDH2 (wild type/mutant) (Homo sapiens, UniProt P05091, E504K); assay: as above; settings: Alda-1 at 100 μM; 20 μg recombinant protein
T4 construct: made in house
T4 sequence (P05091 18-517): T1 sequence (P05091 18-517)
T4 sequence (P05091 18-517 E504K): T1 sequence (P05091 18-517) with E487K
Description: as §3, §4

[5] = biological target: T5, homotetrameric mutant ALDH2*2 (Homo sapiens, UniProt P05091, E504K); assay: as above; settings: Alda-1 at 100 μM; 20 μg recombinant protein
T5 construct: made in house
T5 sequence (P05091 18-517 E504K): T1 sequence (P05091 18-517) with E487K
Description: as §3, §4

[6] = biological target: T1, wild-type ALDH2; assay: Esterase activity assay (p-nitrophenylacetate hydrolysis); settings: for Vmax / EC50 / Vo: 0.97 mM p-Nitrophenylacetate; for EC50: read-out: KAct^(app); for Vo: velocity in absence of activator
Description: as §2
(§5) The ability of Alda-1 to stimulate the hydrolysis of p-nitrophenylacetate both in the presence and absence of coenzyme was examined.

[7] = biological target: T2, ALDH2*2; assay: as above
Description: as §2, §5

[8] = biological target: T2, ALDH2*2; assay: Dehydrogenase activity kinetic assay (25 mM BES, pH 7.5)
[9] = fixed 50 μM Alda-1, NAD+ as varied activator, 0.97 mM p-Nitrophenylacetate

O=c1c(-c2ccc(O)cc2)coc2cc(O[C@@H]3O[C@H](CO)[C@@H](O)[C@H](O)[C@H]3O)ccc12 [Daidzin, daidzin, reference compound]
Hill Slope ([1]; 10 μM Alda-1): 1.0 +/− 0.1
Vmax^(app) of daidzin inhibition curve ([1]; 10 μM Alda-1): 74.9 ± 12.1 min⁻¹
Vmin^(app) of daidzin inhibition curve ([1]; 10 μM Alda-1): 2.5 ± 5.2 min⁻¹
Hill Slope ([1]; no Alda-1): 0.9 +/− 0.3
Vmax^(app) of daidzin inhibition curve ([1]; no Alda-1): 61.5 ± 6.1 min⁻¹
Vmin^(app) of daidzin inhibition curve ([1]; no Alda-1): 5.1 ± 4.7 min⁻¹
Hill Slope ([2]; 50 μM Alda-1): 1.1 +/− 0.1
Vmax^(app) of daidzin inhibition curve ([2]; 50 μM Alda-1): 23.0 ± 1.7 min⁻¹
Vmin^(app) of daidzin inhibition curve ([2]; 50 μM Alda-1): 0.2 ± 0.2 min⁻¹
Hill Slope ([2]; no Alda-1): 1.1 +/− 0.1
Vmax^(app) of daidzin inhibition curve ([2]; no Alda-1): 11.6 ± 1.3 min⁻¹
Vmin^(app) of daidzin inhibition curve ([2]; no Alda-1): 0.2 ± 0.6 min⁻¹

O=C(NCc1ccc2c(c1)OCO2)c1c(Cl)cccc1Cl [Alda-1, N-(1,3-benzodioxol-5-ylmethyl)-2,6-dichlorobenzamide]
increase of enzymatic activity [3]: 2.1 fold
increase of enzymatic activity [4]: 2.2 fold
increase of enzymatic activity [5]: 11 fold
Vmax ([6]; 0.5 mM NAD+): 248 ± 22 min⁻¹
EC50 ([6]; 0.5 mM NAD+): 2.6 µM
Vo ([6]; 0.5 mM NAD+): 96.3 ± 2.2 min⁻¹
Vmax (second line, paired with Ki^(app)) ([6]; 0.5 mM NAD+, higher Alda-1 concentrations, antagonism with NAD+): 242 ± 14 min⁻¹
Ki ([6]; 0.5 mM NAD+, higher Alda-1 concentrations, antagonism with NAD+, read-out: Ki^(app)): 328 µM
increase of ester hydrolysis ([6]; combined Alda-1 and NAD+): 10 fold
Vmax ([6]; no NAD+): 181 ± 6.8 min⁻¹
EC50 ([6]; no NAD+): 3.4 µM
Vo ([6]; no NAD+): 24.9 ± 2.0 min⁻¹
Vmax ([7]; 1.0 mM NAD+, 0.97 mM p-Nitrophenylacetate): 14.7 ± 1.3 min⁻¹
EC50 ([7]; 1.0 mM NAD+, 0.97 mM p-Nitrophenylacetate, read-out: KAct^(app)): 11.2 µM
Vo ([7]; 1.0 mM NAD+, 0.97 mM p-Nitrophenylacetate, velocity in absence of activator): 1.36 ± 0.28 min⁻¹
increase of ester hydrolysis ([7]; combined Alda-1 and NAD+): over 100 fold
Vmax [7, 9]: 49.5 ± 4.3 min⁻¹
Vo [7, 9]: 0.64 ± 0.19 min⁻¹
Vmax ([7]; no NAD+, 0.97 mM p-Nitrophenylacetate): 2.3 ± 0.2 min⁻¹
EC50 ([7]; no NAD+, 0.97 mM p-Nitrophenylacetate, read-out: KAct^(app)): 16.1 µM
Vo ([7]; no NAD+, 0.97 mM p-Nitrophenylacetate, velocity in absence of activator): 0.40 ± 0.03 min⁻¹
EC50 ([7]; with Alda-1, read-out: half-maximal activating concentration of NAD+ for the esterase reaction in presence of Alda-1 (lowered from 7.5 mM)): 2800 µM
EC50 ([8]; covariation NAD+ (0.5-10 mM) and Alda-1 (0 to 30 μM), non-essential activator fit, read-out: Kact): 16 ± 3 µM
decrease of apparent Km for NAD+ ([8]; covariation NAD+ and Alda-1): 6.7 fold
increase of Vmax ([8]; covariation NAD+ and Alda-1): 2 fold
β-factor (modifier on Vmax) ([8]; covariation NAD+ and Alda-1, non-essential activator fit): 2.0±0.2
effect on ALDH2 activity with phenylacetaldehyde or DACA [1]: little effect
effect on daidzin inhibition ([1]; 10 μM Alda-1): antagonized daidzin inhibition
effect on dehydrogenase activity with aromatic aldehydes (benzaldehyde, phenylacetaldehyde, DACA) ([1]; 20 μM Alda-1, saturating concentrations of substrate, pH 7.5): minimal effects
Vm/Vo ([1]; 100 μM Acetaldehyde): 1.8 +/− 0.1
Vmax^(app) ([1]; 100 μM Acetaldehyde): 107 ± 12 min⁻¹
EC50 ([1]; 100 μM Acetaldehyde): 0.98 µM
Vm/Vo ([1]; 100 μM Butyraldehyde): 1.3 +/− 0.1
Vmax^(app) ([1]; 100 μM Butyraldehyde): 86.6 ± 3.1 min⁻¹
EC50 ([1]; 100 μM Butyraldehyde): 1.8 µM
Vm/Vo ([1]; 100 μM Propionaldehyde): 1.7 +/− 0.1
Vmax^(app) ([1]; 100 μM Propionaldehyde): 78.5 ± 9.6 min⁻¹
EC50 ([1]; 100 μM Propionaldehyde): 5.1 µM
effect on ALDH2 activity with phenylacetaldehyde or DACA at high concentrations ([1]; Alda-1 >100 μM): weakly inhibitory
effect on activity with benzaldehyde ([1]; up to maximum concentration used, 200 μM Alda-1): little effect
effect on daidzin inhibition ([2]; 50 μM Alda-1): antagonized daidzin inhibition
